The target in series [1] is T1, GnRH-R (membranes of human pituitary) (Homo sapiens, UniProt P30968).
T1 construct: GnRH-Rs expressed on human pituitary and human prostate cancer cells; from tissue; host or cells: normal human pituitary (anterior lobe), autopsy; membrane homogenate
T1 sequence (P30968 1-328): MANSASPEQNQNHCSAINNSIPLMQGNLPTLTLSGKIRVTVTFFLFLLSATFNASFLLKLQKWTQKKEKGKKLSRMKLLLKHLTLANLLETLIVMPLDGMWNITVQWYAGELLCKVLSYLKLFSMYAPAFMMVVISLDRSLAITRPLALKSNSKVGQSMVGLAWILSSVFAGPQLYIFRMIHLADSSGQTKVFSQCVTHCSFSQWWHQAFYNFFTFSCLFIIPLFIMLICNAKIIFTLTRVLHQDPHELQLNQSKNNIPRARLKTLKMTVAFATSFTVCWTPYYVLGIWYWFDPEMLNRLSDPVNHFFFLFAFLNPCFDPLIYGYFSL
Briefly: Radioligand competition assay, displacement of [125I]-GnRH-I-[6D-Trp] (triptorelin), human pituitary membranes. The series is classed as binding. Here is the method:
(§1) A ligand competition assay with [^125I]-GnRH-I-[^6D-Trp] as radioligand was performed to examine the binding affinity of the GnRH-III-drug conjugates to GnRH-Rs expressed on human pituitary and human prostate cancer cells. Human prostate cancer cells were derived from patients at the time of initial surgical treatment, while tissue samples from normal human pituitary (anterior lobe) were obtained by autopsy. All subjects were informed and gave their consent for inclusion before they participated in the study. The preparation of the cell membranes was carried out according to the literature. The chloramines-T method was used to prepare radioiodinated GnRH-I agonist triptorelin which was purified by RP-HPLC [10, 38, 39, 47]. The displacement of [^125I]-GnRH-I-[^6D-Trp] was studied in an in vitro ligand competition assay to determine the binding affinities of the non-radio-labeled GnRH-III bioconjugates to GnRH-RI [10, 11, 38, 39]. Membrane homogenates containing […] protein were incubated in duplicate or triplicate with 60–80,000 cpm [^125I]-GnRH-I-[^6D-Trp] and rising concentration (1 pM—1 µM) of nonradioactive bioconjugates as competitors in a total volume of […] binding buffer. Protein concentration was determined by the method of Bradford using a Bio-Rad protein assay kit (Bio-Rad Laboratories, Hercules, CA, USA). The LIGAND-PC computerized curve-fitting program of Munson and Rodbard was used to determine the receptor binding characteristics and IC50 values.
(In general: Loss of bound radioactivity is the signal in a displacement assay; it reports binding, not function.)

A short description of series [2]: Solubility in acidic aqueous buffer (remark). The series is classed as physicochemical. The following applies: compared with the ΔHis-D-Tic compounds.
A short description of series [3]: Degradation of drug conjugates in presence of rat liver lysosomal homogenate (LC-MS). The series is classed as in vitro ADME. Conditions: pH 5, 37 °C, up to 24 h, LC-MS. Here is the method:
The preparation of the rat liver lysosomal homogenate was carried out as recently reported. A Qubit Protein Assay Kit (Thermo Fischer Scientific, Waltham, MA, USA) was used to examine the concentration of the lysosomal proteins.
Initially, a stock solution of the GnRH-III-Dau conjugates in water (5 µg/µL) was prepared. For the degradation reaction, the conjugates and the lysosomal homogenate were diluted together in 0.2 M NaOAc buffer (pH 5) to a concentration of 0.25 µg/µL each. These mixtures were kept at 37 °C and at distinct time points (5 min, 1 h, 2 h, 4 h, 8 h and 24 h), 15 µL of each sample were quenched with 2 µL acetic acid and analyzed by LC-MS (System I).
The GnRH-III-PTX conjugates were dissolved in DMSO to a concentration of 10 mM. The reaction was carried out in 0.2 M NaOAc buffer (pH 5) with 10 µM conjugate and 0.025 µg/mL lysosomal homogenate. The reaction mixtures were incubated at 37 °C and aliquots of 60 μL were taken at 5 min, 1 h, 2 h, 4 h, 8 h and 24 h and quenched with 5 μL of acetic acid. The analysis of the samples was performed by LC–MS (System-II).

Series [4] relates to Panc-1 human pancreatic cancer cells. Briefly: cells. In kind it is cell-based. The following applies: Panc-1 cells; treatment 24 h (Dau conjugates) or 6 h (PTX compounds), viability at 72 h; mean ± SE of two to three determinations; read-out: Panc-1 IC50. Here is the method:
(§2) For cultivation of A2780 human ovarian and Panc-1 human pancreatic cancer cells, RPMI-1640 medium with 10% FBS, L-glutamine and 1% Penicillin-Streptomycin were used. Cells were cultured in appropriate plastic flasks at 37 °C (humidified atmosphere, 5% CO2/95% air).
(§3) A set-up of 96-well plates was used to study the in vitro antiproliferative activity. Therefore, 5 × 10^3 cells in 100 µL complete medium were seeded to each well. After 24 h, complete medium was removed and cells were treated with 200 µL bioconjugate solution in serum-free medium (concentration range 0.0032–50 µM, control wells were treated with serum-free medium). Medium was taken out after 6 h treatment (PTX conjugates) or 24 h (Dau conjugates), replaced by complete medium and incubation was continued. To determine the cell viability, medium was removed after 72 h and 100 µL resazurin solution [45] (10% Tox-8 in FBS-free medium) was added to each well, followed by additional incubation of 2–3 h. A Tecan infinite 200 pro microplate reader (Tecan Group Ltd., Zürich, Switzerland) was used for fluorescence detection (λEx = 560 and λEm = 590 nm). Experiments were performed at least twice, using three parallels per concentration. The cell viability (and IC50 values) was calculated with GraphPad Prism using a nonlinear regression (sigmoidal dose-response).

For series [5], the system named is A2780 human ovarian cancer cells. Nature of the series: cells. The following applies: A2780 cells; treatment 24 h (Dau conjugates) or 6 h (PTX compounds), viability at 72 h; mean ± SE of two to three determinations; read-out: A2780 IC50. In kind it is cell-based. The procedure:
as §2, §3

Series [6] addresses T2, GnRH-R (membranes of human prostate cancer specimens) (Homo sapiens, UniProt P30968).
T2 construct: GnRH-Rs expressed on human pituitary and human prostate cancer cells; from tissue; host or cells: human prostate cancer specimens from patients (surgery); membrane homogenate
T2 sequence (P30968 1-328): T1 sequence (P30968 1-328)
Briefly: Radioligand competition assay, displacement of [125I]-GnRH-I-[6D-Trp] (triptorelin), human prostate cancer membranes. The following applies: mean ± SE of two to three determinations, read-out: IC50 Prostate Cancer, competitive inhibition of [125I][6D-Trp]-GnRH-I binding. The procedure: as §1

A word on the IC50: it is the concentration needed to halve the response being measured. As to `CCCC(=O)NCCCC[C@H](NC(=O)[C@H](Cc1c[nH]c2ccccc12)NC(=O)[C@H](Cc1c[nH]cn1)NC(=O)[C@@H]1CCC(=O)N1)C(=O)N[C@@H](Cc1c[nH]cn1)C(=O)N[C@@H](CC(=O)O)C(=O)N[C@@H](Cc1c[nH]c2ccccc12)C(=O)N[C@@H](CCCCNC(=O)CCCC(=O)N[C@H](C(=O)N[C@@H](CCCNC(N)=O)C(=O)Nc1ccc(COC(=O)N[C@H]2C[C@H](O[C@H]3C[C@](O)(C(C)=O)Cc4c(O)c5c(c(O)c43)C(=O)c3c(OC)cccc3C5=O)O[C@@H](C)[C@H]2O)cc1)C(C)C)C(=O)N1CCC[C@H]1C(=O)NCC(N)=O` [compound 10], the IC50 was 0.0161 ± 0.00203 µM in series [1], 85.6 ± 24.3 µM in series [4], 11.2 ± 0.38 µM in series [5] and 0.0137 ± 0.00187 µM in series [6]. Besides, in series [2], the “solubility in acidic aqueous buffer” value is reported as “better solubility”. Besides, the “release of free Dau by lysosomal enzymes” value in series [3] was “release of free Dau and the formation of several peptide fragments could be confirmed”.
As for `CCCC(=O)NCCCC[C@H](NC(=O)[C@H](Cc1c[nH]c2ccccc12)NC(=O)[C@H](Cc1c[nH]cn1)NC(=O)[C@@H]1CCC(=O)N1)C(=O)N[C@@H](Cc1c[nH]cn1)C(=O)N[C@@H](CC(=O)O)C(=O)N[C@@H](Cc1c[nH]c2ccccc12)C(=O)N[C@@H](CCCCNC(=O)CCCC(=O)N[C@H](C(=O)N[C@@H](C)C(=O)Nc1ccc(COC(=O)N[C@H]2C[C@H](O[C@H]3C[C@](O)(C(C)=O)Cc4c(O)c5c(c(O)c43)C(=O)c3c(OC)cccc3C5=O)O[C@@H](C)[C@H]2O)cc1)C(C)C)C(=O)N1CCC[C@H]1C(=O)NCC(N)=O` [compound 12], the half-inhibitory concentration (IC50) turned out to be 0.017 ± 0.00104 µM in series [1], 56.2 ± 17.3 µM in series [4], 7.48 ± 0.66 µM in series [5] and 0.0155 ± 0.00083 µM in series [6]. Besides, the “solubility in acidic aqueous buffer” value in series [2] is “better solubility”. In addition, the “release of free Dau by lysosomal enzymes” value in series [3] was “release of free Dau and the formation of several peptide fragments could be confirmed”.

The values above are taken from PMC9105102, “Development and Biochemical Characterization of Self-Immolative Linker Containing GnRH-III-Drug Conjugates” (International Journal of Molecular Sciences, 2022).
